Experiments:
Test in all cases: combination Emax (second highest fraction inhibited in the dose matrix, 72 h); higher = more inhibition; extreme values may be limits of the assay
MG-63 (Osteosarcoma) = tested on: MG-63 (Osteosarcoma)
Procedure, shortened: (§1)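 Cell lines in DMEM/F12 or RPMI with 10% FBS were plated in 1536-well plates, held 24 hours at 37°C, 5% CO2, then given two-drug dose matrices for 72 hours (DMSO typically 0.2%). Viability was read by CellTiter-Glo 2.0 luminescence and scaled as inhibition from 0 (vehicle wells) to 1 (blank wells). Combination Emax is the second-highest inhibition in the matrix; Bliss excess is observed combination effect minus expected EA + EB − EA·EB, EA and EB being single-agent effects.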

[1] = tested on: Daudi (Burkitt's Lymphoma)
Procedure, shortened: as §1

[2] = tested on: NCI-H2009 (Lung Adenocarcinoma)
Procedure, shortened: as §1

[3] = tested on: NCI-H2170 (Squamous Cell Lung Carcinoma)
Procedure, shortened: as §1

[4] = tested on: JURL-MK1 (Chronic Myelogenous Leukemia)
Procedure, shortened: as §1

[5] = tested on: GRANTA-519 (B-Cell Non-Hodgkin's Lymphoma)
Procedure, shortened: as §1

NCI-H2452 (Mesothelioma) = tested on: NCI-H2452 (Mesothelioma)
Procedure, shortened: as §1

[6] = tested on: ATN-1 (T-Lymphoblastic Leukemia)
Procedure, shortened: as §1

A375 (Melanoma) = tested on: A375 (Melanoma)
Procedure, shortened: as §1

[7] = tested on: RS4-11 (B-Lymphoblastic Leukemia)
Procedure, shortened: as §1

[8] = tested on: HT-1197 (Bladder Carcinoma)
Procedure, shortened: as §1

[9] = tested on: COR-L105 (Lung Adenocarcinoma)
Procedure, shortened: as §1

[10] = tested on: JJN-3 (Plasma Cell Myeloma)
Procedure, shortened: as §1

[11] = tested on: BT-474 (Breast Carcinoma)
Procedure, shortened: as §1

[12] = tested on: SBC-3 (Small Cell Lung Carcinoma)
Procedure, shortened: as §1

[13] = tested on: RPMI-8402 (T-Lymphoblastic Leukemia)
Procedure, shortened: as §1

[14] = tested on: IGROV-1 (Ovarian Carcinoma)
Procedure, shortened: as §1

[15] = tested on: SUP-HD1 (Hodgkin's Lymphoma)
Procedure, shortened: as §1

[16] = tested on: OCI-M1 (Acute Myeloid Leukemia)
Procedure, shortened: as §1

[17] = tested on: SNU-1 (Gastric Carcinoma)
Procedure, shortened: as §1

| SMILES | combination Emax (MG-63 (Osteosarcoma)) | combination Emax [1] | combination Emax [2] | combination Emax [3] | combination Emax [4] | combination Emax [5] | combination Emax (NCI-H2452 (Mesothelioma)) | combination Emax [6] | combination Emax (A375 (Melanoma)) | combination Emax [7] | combination Emax [8] | combination Emax [9] | combination Emax [10] | combination Emax [11] | combination Emax [12] | combination Emax [13] | combination Emax [14] | combination Emax [15] | combination Emax [16] | combination Emax [17] |
| --- | --- | --- | --- | --- | --- | --- | --- | --- | --- | --- | --- | --- | --- | --- | --- | --- | --- | --- | --- | --- |
| COc1nnc2ccc(N3CCC(c4ccc(OCCN5CCN(C)C(=O)[C@H]5C)cc4)CC3)nn12 [AZD5153] + C[C@@H]1COCCN1C2=NC(=NC(=C2)C3(CC3)[S@](=N)(=O)C)C4=C5C=CNC5=NC=C4 [AZD6738] (first compound max 1 µM, 7x7, partner max 10 µM) | 0.757 | 0.843 | 0.645 | 0.788 | 0.998 | 0.906 | 0.574 | 0.984 | 0.774 | 0.944 | 0.724 | 0.477 | 0.964 | 0.483 | 0.784 | 1 | 0.843 | 0.823 | 1 | 0.823 |
| COc1nnc2ccc(N3CCC(c4ccc(OCCN5CCN(C)C(=O)[C@H]5C)cc4)CC3)nn12 [AZD5153] + Cc1c2c(nn1C)CSCc1cc(n(C)n1)CSc1cc(c3ccccc3c1)OCCCc1c(C(=O)O)n(C)c3c-2c(Cl)ccc13 [AZD5991] (first compound max 1 µM, 7x7, partner max 1 µM) | 0.697 | 0.916 | 0.379 | 0.636 | 0.927 | 0.314 | 0.53 | 0.999 | 0.606 | 0.937 | 0.966 | 0.568 | 1 | 0.912 | 0.753 | 1 | 0.889 | 0.946 | 1 | 0.976 |
| COc1nnc2ccc(N3CCC(c4ccc(OCCN5CCN(C)C(=O)[C@H]5C)cc4)CC3)nn12 [AZD5153] + Cn1cnc2c(F)c(Nc3ccc(Br)cc3Cl)c(C(=O)NOCCO)cc21 [Selumetinib] (first compound max 1 µM, 7x7, partner max 10 µM) | 0.689 | 0.527 | 0.716 | 0.405 | 1 | 0.206 | 0.446 | 0.508 | 0.868 | 0.593 | 0.806 | 0.621 | 0.955 | 0.385 | 0.699 | 0.774 | 0.736 | 0.752 | 1 | 0.71 |
| Cc1c2c(nn1C)CSCc1cc(n(C)n1)CSc1cc(c3ccccc3c1)OCCCc1c(C(=O)O)n(C)c3c-2c(Cl)ccc13 [AZD5991] + C1CN(CCC1(C(=O)N[C@@H](CCO)C2=CC=C(C=C2)Cl)N)C3=NC=NC4=C3C=CN4 [Capivasertib] (first compound max 1 µM, 7x7, partner max 3 µM) | 0.228 | 0.348 | 0.158 | 0.415 | 0.729 | 0.0859 | 0.253 | 0.989 | 0.2 | 0.519 | 0.419 | 0.248 | 1 | 0.746 | 0.334 | 0.929 | 0.767 | 0.777 | 0.115 | 0.613 |
| Cc1c2c(nn1C)CSCc1cc(n(C)n1)CSc1cc(c3ccccc3c1)OCCCc1c(C(=O)O)n(C)c3c-2c(Cl)ccc13 [AZD5991] + C=CCn1c(=O)c2cnc(Nc3ccc(N4CCN(C)CC4)cc3)nc2n1-c1cccc(C(C)(C)O)n1 [AZD1775] (first compound max 1 µM, partner max 1 µM) | 0.395 | 0.706 | 0.75 | 0.749 | 0.999 | 0.863 | 0.623 | 1 | 0.818 | 0.995 | 0.593 | 0.454 | 1 | 0.469 | 0.602 | 1 | 0.88 | 0.82 | 0.921 | 0.6 |
| Cc1c2c(nn1C)CSCc1cc(n(C)n1)CSc1cc(c3ccccc3c1)OCCCc1c(C(=O)O)n(C)c3c-2c(Cl)ccc13 [AZD5991] + CC1(C)CCC(CN2CCN(c3ccc(C(=O)NS(=O)(=O)c4ccc(NCC5CCOCC5)c([N+](=O)[O-])c4)c(Oc4cnc5[nH]ccc5c4)c3)CC2)=C(c2ccc(Cl)cc2)C1 [Venetoclax] (first compound max 1 µM, 7x7, partner max 1 µM) | 0.199 | 0.258 | 0.151 | 0.237 | 0.695 | 0.472 | 0.305 | 0.968 | 0.307 | 1 | 0.148 | 0.181 | 1 | 0.351 | 0.69 | 0.932 | 0.469 | 0.959 | 0.175 | 0.933 |
| Cc1c2c(nn1C)CSCc1cc(n(C)n1)CSc1cc(c3ccccc3c1)OCCCc1c(C(=O)O)n(C)c3c-2c(Cl)ccc13 [AZD5991] + CCN(CCO)CCCOc1ccc2c(Nc3cc(CC(=O)Nc4cccc(F)c4)[nH]n3)ncnc2c1 [AZD2811] (first compound max 1 µM, 7x7, partner max 1 µM) | 0.232 | 0.806 | 0.754 | 0.655 | 0.901 | 0.464 | 0.452 | 0.976 | 0.746 | 0.991 | 0.2 | 0.262 | 1 | 0.442 | 0.531 | 1 | 0.346 | 0.787 | 0.285 | 0.551 |
| Cc1c2c(nn1C)CSCc1cc(n(C)n1)CSc1cc(c3ccccc3c1)OCCCc1c(C(=O)O)n(C)c3c-2c(Cl)ccc13 [AZD5991] + CN(C)CCCOc1ccc(-c2ccc3ncc4c(c3c2)n(C2CCOCC2)c(=O)n4C)cn1 [AZD0156] (first compound max 1 µM, 7x7, partner max 1 µM) | 0.251 | 0.288 | 0.182 | 0.317 | 0.734 | 0.209 | 0.372 | 0.929 | 0.457 | 0.565 | 0.217 | 0.258 | 1 | 0.306 | 0.292 | 0.795 | 0.606 | 0.617 | 0.203 | 0.584 |
| Cc1c2c(nn1C)CSCc1cc(n(C)n1)CSc1cc(c3ccccc3c1)OCCCc1c(C(=O)O)n(C)c3c-2c(Cl)ccc13 [AZD5991] + C[C@@H]1COCCN1C2=NC(=NC(=C2)C3(CC3)[S@](=N)(=O)C)C4=C5C=CNC5=NC=C4 [AZD6738] (first compound max 1 µM, 7x7, partner max 10 µM) | 0.491 | 0.874 | 0.466 | 0.683 | 1 | 0.906 | 0.579 | 1 | 0.893 | 1 | 0.466 | 0.511 | 1 | 0.334 | 0.746 | 0.999 | 0.852 | 0.891 | 0.973 | 0.794 |
| Cc1c2c(nn1C)CSCc1cc(n(C)n1)CSc1cc(c3ccccc3c1)OCCCc1c(C(=O)O)n(C)c3c-2c(Cl)ccc13 [AZD5991] + C[C@@H](Nc1cc(F)cc(F)c1)c1cc(C(=O)N(C)C)cc2c(=O)cc(N3CCOCC3)oc12 [AZD8186] (first compound max 1 µM, 7x7, partner max 3 µM) | 0.357 | 0.427 | 0.165 | 0.275 | 0.629 | 0.0698 | 0.357 | 0.945 | 0.289 | 0.591 | 0.252 | 0.238 | 1 | 0.594 | 0.376 | 0.888 | 0.8 | 0.659 | 0.0662 | 0.652 |
| Cc1c2c(nn1C)CSCc1cc(n(C)n1)CSc1cc(c3ccccc3c1)OCCCc1c(C(=O)O)n(C)c3c-2c(Cl)ccc13 [AZD5991] + Cc1cc2ncnn2cc1Nc1ncc2c(n1)n(C1CCOCC1)c(=O)n2C [AZD7648] (first compound max 1 µM, 7x7, partner max 10 µM) | 0.329 | 0.328 | 0.147 | 0.397 | 0.773 | 0.214 | 0.409 | 0.925 | 0.331 | 0.501 | 0.267 | 0.33 | 1 | 0.301 | 0.456 | 0.836 | 0.625 | 0.576 | 0.145 | 0.485 |
| Cc1c2c(nn1C)CSCc1cc(n(C)n1)CSc1cc(c3ccccc3c1)OCCCc1c(C(=O)O)n(C)c3c-2c(Cl)ccc13 [AZD5991] + Cn1cnc2c(F)c(Nc3ccc(Br)cc3Cl)c(C(=O)NOCCO)cc21 [Selumetinib] (first compound max 1 µM, 7x7, partner max 3 µM) | 0.251 | 0.394 | 0.526 | 0.184 | 0.952 | 0.106 | 0.32 | 0.888 | 0.895 | 0.497 | 0.321 | 0.463 | 1 | 0.246 | 0.225 | 0.692 | 0.734 | 0.593 | 0.618 | 0.605 |
